# ChEMBL document CHEMBL3885881, “DrugMatrix”
# Organism: Rattus norvegicus
# Assay: DrugMatrix - Regimen: Daily Repeat
# Type: toxicity, organism-based, Sprague-Dawley
# Parameters: regimen Daily Repeat, gender Male, age 6-8 weeks
# Details: in vivo, iv, vehicle 100 % SALINE; for ABSOLUTE BASOPHIL / ABSOLUTE EOSINOPHIL / ABSOLUTE LYMPHOCYTE / ABSOLUTE MONOCYTE / ABSOLUTE SEGMENTED NEUTROPHIL / BASOPHIL / EOSINOPHIL / ERYTHROCYTE COUNT / HEMATOCRIT / HEMOGLOBIN / LEUKOCYTE COUNT / LYMPHOCYTE / MEAN CORPUSCULAR HEMOGLOBIN / MEAN CORPUSCULAR HEMOGLOBIN CONCENTRATION / MEAN CORPUSCULAR VOLUME / MONOCYTE / NEUTROPHIL / NUCLEATED RED BLOOD CELLS / PLATELET COUNT: tissue Blood; for ALANINE AMINOTRANSFERASE / ALBUMIN / ALKALINE PHOSPHATASE / ASPARTATE AMINOTRANSFERASE / BLOOD UREA NITROGEN / CARBON DIOXIDE / CHLORIDE / CHOLESTEROL / CREATINE PHOSPHOKINASE / CREATININE / GLUCOSE / LACTATE DEHYDROGENASE / LIPASE / PHOSPHORUS / POTASSIUM / SODIUM / TOTAL BILIRUBIN / TOTAL PROTEIN / URIC ACID: tissue Plasma
# [1] = 0 mg/kg, 72 h, dose level Control, time 3 day
# [2] = 0 mg/kg, 120 h, dose level Control, time 5 day
# [3] = […], 72 h, dose 0.24 mg/Kg, dose level Low, time 3 day
# [4] = […], 72 h, dose 2.5 mg/Kg, dose level High, time 3 day
smiles,measurement,setting,value
CC[C@@]1(O)C(=O)OCc2c1cc1n(c2=O)Cc2cc3ccccc3nc2-1 [CAMPTOTHECIN],ABSOLUTE BASOPHIL,[1],0 CELLS/uL
same,ABSOLUTE EOSINOPHIL,[1],21.67 CELLS/uL
same,ABSOLUTE LYMPHOCYTE,[1],10193.67 CELLS/uL
same,ABSOLUTE MONOCYTE,[1],165.83 CELLS/uL
same,ABSOLUTE SEGMENTED NEUTROPHIL,[1],702.17 CELLS/uL
same,BASOPHIL,[1],0%
same,EOSINOPHIL,[1],0.17%
same,ERYTHROCYTE COUNT,[1],5.39 x10E6/uL
same,HEMATOCRIT,[1],34.62%
same,HEMOGLOBIN,[1],13.8 G/DL
same,LEUKOCYTE COUNT,[1],11.08 x10E3/uL
same,LYMPHOCYTE,[1],91.83%
same,MEAN CORPUSCULAR HEMOGLOBIN,[1],25.68 pg
same,MEAN CORPUSCULAR HEMOGLOBIN CONCENTRATION,[1],39.9 G/DL
same,MEAN CORPUSCULAR VOLUME,[1],64.37 fL
same,MONOCYTE,[1],1.5%
same,NEUTROPHIL,[1],6.5%
same,NUCLEATED RED BLOOD CELLS,[1],0 /100WBC
same,PLATELET COUNT,[1],1202.83 x10E3/uL
same,ALANINE AMINOTRANSFERASE,[1],55.5 u/L
same,ALBUMIN,[1],4.22 G/DL
same,ALKALINE PHOSPHATASE,[1],406.83 u/L
same,ASPARTATE AMINOTRANSFERASE,[1],101.5 u/L
same,BLOOD UREA NITROGEN,[1],13.5 mg/dL
same,CARBON DIOXIDE,[1],30.33 mmol/L
same,CHLORIDE,[1],102.17 MEQ/L
same,CHOLESTEROL,[1],63.67 mg/dL
same,CREATINE PHOSPHOKINASE,[1],732.67 u/L
same,CREATININE,[1],0.2 mg/dL
same,GLUCOSE,[1],157 mg/dL
same,LACTATE DEHYDROGENASE,[1],442.5 u/L
same,LIPASE,[1],10.83 u/L
same,PHOSPHORUS,[1],12.68 mg/dL
same,POTASSIUM,[1],5.67 MEQ/L
same,SODIUM,[1],144 MEQ/L
same,TOTAL BILIRUBIN,[1],0.15 mg/dL
same,TOTAL PROTEIN,[1],6.02 G/DL
same,URIC ACID,[1],1.55 mg/dL
same,ABSOLUTE BASOPHIL,[2],0 CELLS/uL
same,ABSOLUTE EOSINOPHIL,[2],17 CELLS/uL
same,ABSOLUTE LYMPHOCYTE,[2],11849.17 CELLS/uL
same,ABSOLUTE MONOCYTE,[2],69.83 CELLS/uL
same,ABSOLUTE SEGMENTED NEUTROPHIL,[2],730.67 CELLS/uL
same,BASOPHIL,[2],0%
same,EOSINOPHIL,[2],0.17%
same,ERYTHROCYTE COUNT,[2],5.93 x10E6/uL
same,HEMATOCRIT,[2],37.42%
same,HEMOGLOBIN,[2],14.4 G/DL
same,LEUKOCYTE COUNT,[2],12.67 x10E3/uL
same,LYMPHOCYTE,[2],93.17%
same,MEAN CORPUSCULAR HEMOGLOBIN,[2],24.32 pg
same,MEAN CORPUSCULAR HEMOGLOBIN CONCENTRATION,[2],38.5 G/DL
same,MEAN CORPUSCULAR VOLUME,[2],63.08 fL
same,MONOCYTE,[2],0.5%
same,NEUTROPHIL,[2],6.17%
same,NUCLEATED RED BLOOD CELLS,[2],0 /100WBC
same,PLATELET COUNT,[2],1170.5 x10E3/uL
same,ALANINE AMINOTRANSFERASE,[2],51 u/L
same,ALBUMIN,[2],4.12 G/DL
same,ALKALINE PHOSPHATASE,[2],392.67 u/L
same,ASPARTATE AMINOTRANSFERASE,[2],81.67 u/L
same,BLOOD UREA NITROGEN,[2],16.17 mg/dL
same,CARBON DIOXIDE,[2],30.67 mmol/L
same,CHLORIDE,[2],100.5 MEQ/L
same,CHOLESTEROL,[2],64.83 mg/dL
same,CREATINE PHOSPHOKINASE,[2],242.67 u/L
same,CREATININE,[2],0.2 mg/dL
same,GLUCOSE,[2],186.83 mg/dL
same,LACTATE DEHYDROGENASE,[2],188 u/L
same,LIPASE,[2],10.83 u/L
same,PHOSPHORUS,[2],11.67 mg/dL
same,POTASSIUM,[2],5.51 MEQ/L
same,SODIUM,[2],142.55 MEQ/L
same,TOTAL BILIRUBIN,[2],0.22 mg/dL
same,TOTAL PROTEIN,[2],6.08 G/DL
same,URIC ACID,[2],1.85 mg/dL
same,ABSOLUTE BASOPHIL,[3],0 CELLS/uL
same,ABSOLUTE EOSINOPHIL,[3],41.67 CELLS/uL
same,ABSOLUTE LYMPHOCYTE,[3],12074 CELLS/uL
same,ABSOLUTE MONOCYTE,[3],83.33 CELLS/uL
same,ABSOLUTE SEGMENTED NEUTROPHIL,[3],834.33 CELLS/uL
same,BASOPHIL,[3],0%
same,EOSINOPHIL,[3],0.33%
same,ERYTHROCYTE COUNT,[3],5.45 x10E6/uL
same,HEMATOCRIT,[3],34.8%
same,HEMOGLOBIN,[3],13.63 G/DL
same,LEUKOCYTE COUNT,[3],13.03 x10E3/uL
same,LYMPHOCYTE,[3],92.67%
same,MEAN CORPUSCULAR HEMOGLOBIN,[3],25.13 pg
same,MEAN CORPUSCULAR HEMOGLOBIN CONCENTRATION,[3],39.23 G/DL
same,MEAN CORPUSCULAR VOLUME,[3],63.97 fL
same,MONOCYTE,[3],0.67%
same,NEUTROPHIL,[3],6.33%
same,NUCLEATED RED BLOOD CELLS,[3],0 /100WBC
same,PLATELET COUNT,[3],732.67 x10E3/uL
same,ABSOLUTE BASOPHIL,[4],0 CELLS/uL
same,ABSOLUTE EOSINOPHIL,[4],0 CELLS/uL
same,ABSOLUTE LYMPHOCYTE,[4],9985 CELLS/uL
same,ABSOLUTE MONOCYTE,[4],46 CELLS/uL
same,ABSOLUTE SEGMENTED NEUTROPHIL,[4],602.33 CELLS/uL
same,BASOPHIL,[4],0%
same,EOSINOPHIL,[4],0%
same,ERYTHROCYTE COUNT,[4],5.09 x10E6/uL
same,HEMATOCRIT,[4],32.33%
same,HEMOGLOBIN,[4],13.2 G/DL
same,LEUKOCYTE COUNT,[4],10.63 x10E3/uL
same,LYMPHOCYTE,[4],94%
same,MEAN CORPUSCULAR HEMOGLOBIN,[4],25.93 pg
same,MEAN CORPUSCULAR HEMOGLOBIN CONCENTRATION,[4],40.87 G/DL
same,MEAN CORPUSCULAR VOLUME,[4],63.53 fL
same,MONOCYTE,[4],0.33%
same,NEUTROPHIL,[4],5.67%
same,NUCLEATED RED BLOOD CELLS,[4],0 /100WBC
same,PLATELET COUNT,[4],1247.67 x10E3/uL
